{"source": "patent US9969744B2", "about": "“Compounds for use in cognition improvement” (FUNDACIÓN PARA LA INVESTIGACIÓN MÉDICA APLICADA, priority 2014, dated 2018)", "key": {"[1]": {"experiment": "Pharmacokinetics: plasma and brain concentration in wild type mice", "type": "in vivo", "conditions": "1 hour after 40 mg/Kg i.p.", "description": "Plasma and brain samples for measuring compounds concentrations were collected at predetermined times from four wild type mice per point. Three time points were measured: 0.25, 0.5 and 1.0 hour. Compounds concentration was measured using a Xevo-TQ MS triple quadropole mass spectrometer with an electrospray ionization (ESI) source and an Acquity UPLC (Waters, Manchester, UK).\nCompounds solutions were prepared by dissolving the samples in DMSO and this solution was made up to a final volume by addition of a mixture of Tween 20 and 0.9% NaCl (1/1/8, v:v:v, DMSO/Tween 20/saline). Compounds were injected as a single intraperitoneal injection. Animals were killed by decapitation.\nPlasma. Blood was collected into tubes containing EDTA and plasma was collected via centrifugation (4° C., 13200 rpm, 5 min) and stored at −80° C. until analysis.\nBrain. Brains were collected immediately after mice death. The brains were excised, weighed and frozen at −80° C. until further process for analysis.\nChromatographic separation was performed by gradient elution at 0.4 mL/min using an Acquity UPLC BEH C18 column (100×2.1 mm, 1.7 μm particle size; Waters). The mobile phase consisted of A: water with 0.1% formic acid, B: methanol with 0.1% formic acid. After 1.5 min at the initial condition of 95% A, solvent B was increased from 5% to 100% over 2 min, maintained at 100% for 1.5 min, then a linear gradient to initial conditions was applied for 0.1 min and maintained for 3.4 minutes to re-equilibrate the column, giving a cycle time of 8.5 min. The autosampler temperature was set at 10° C. and column temperature at 45° C.\nCompounds were monitored using a triple quadrupole mass spectrometer equipped with an electrospray ionization interface. For detection and quantification, a capillary voltage of 3.5 kV and a cone voltage of 38 V were used. Source and desolvation temperatures were 150° C. and 650° C., respectively. Ultra-high purity nitrogen was used for cone gas (75 L h^−1) and desolvation gas (1000 L h^−1). The electrospray ionization operated in the positive mode, and the collision gas used was ultra-pure argon at a flow rate of 0.15 mL min^−1.\nQuantification was achieved by external calibration using matrix-matched standards. Concentrations were calculated using a weighted least-squares linear regression (W=1/x). Calibration standards were prepared by adding the appropriate volume of diluted solutions of the compound (made in a mixture of methanol and water, 50:50, v:v) to aliquots of 50 uL of blank plasma or to 75 mg of homogenized blank brain. 2% formic acid in acetonitrile was added to precipitate the proteins. The mixture was then agitated for 10 min and centrifuged at 13200 rpm for 5 min at 4° C. […]"}, "aged-Tg2576 mice": {"test_system": "aged-Tg2576 mice", "experiment": "Memory function in aged-Tg2576 mice: Fear Conditioning (FC)", "type": "in vivo", "conditions": "Tg2576 mice (16-18 month), chronic treatment 3-5 weeks, 20 mg/Kg i.p.; standard error in brackets", "description": "The effect on memory function of compounds of the invention was studied in Tg2576 mice (16-18 month) after a chronic treatment of 3-5 weeks by using two different behavioral tasks: the Fear Conditioning (FC) and the Morris water maze (MWM) test, Table 5 (below)\nThe behavioural procedure of FC task involved three phases: habituation, training and testing. During habituation phase, mice were habituated to the conditioning box (context) for 5 min with no stimuli presented. 24 hours later (training phase), mice were placed in the training chamber and allowed to explore for 2 min, afterward, a footshock (0.3 mA) unconditioned stimulus was administered (2 s) and 30 s after mice were returned to their home cage. Mice were returned to the conditioning chamber 24 h after training and allowed to explore the context for 2 min, during which freezing behavior was recorded (contextual long term memory). Freezing scores were expressed as percentages. The conditioning procedure was carried out in a StartFear system (Panlab S.L., Barcelona, Spain) that allows recording and analysis of the signal generated by the animal movement through a high sensitivity Weight Transducer system. The analogical signal is transmitted to the FREEZING and STARTLE software modulated through the load cell unit for recording purposes and posterior analysis in terms of activity/immobility."}}, "note": "Marks after values point to notes of the source that are not given here."}
{"smiles": "CCCc1nn(C)c2c(=O)[nH]c(-c3cc(Cc4ccc(C(=O)Nc5ccccc5N)cc4)ccc3OCC)nc12", "note": "[Example 1-11, N-(2-aminophenyl)-4-[[4-ethoxy-3-(1-methyl-7-oxo-3-propyl-6H-pyrazolo[4,3-d]pyrimidin-5-yl)phenyl]methyl]benzamide]", "values": [{"measurement": "Crosses BBB?", "setting": "[1]", "value": "Yes"}, {"measurement": "C (brain)", "setting": "[1]; standard deviation in brackets", "value": "1903.4 (565.8)^a nmol/Kg"}, {"measurement": "C (plasma)", "setting": "[1]; standard deviation in brackets", "value": "12132.5 (1762.9)^a nM"}, {"measurement": "Kp at 1 h", "setting": "[1]; mouse, brain/plasma, intraperitoneal, read-out: Brain/Plasma ratio", "value": 0.157}, {"measurement": "FC (% freezing)", "setting": "aged-Tg2576 mice", "value": "59.65 (9.2)^c %"}]}
